Source: patent US9149038B2, “4-amino-6-(heterocyclic)picolinates and 6-amino-2-(heterocyclic)pyrimidine-4-carboxylates and their use as herbicides” (Dow AgroSciences LLC, priority 2013, dated 2015)
Like-named read-outs stand apart in the source and are kept apart here.

Key:
[1] = tested on: Key Broadleaf Weed and Crop Species; assay: Post-Emergent Test II: postemergent herbicidal activity, visual rating after 14 d (Table 7); format: in vivo; settings: post-emergence, 336 h; for pest or weed control at 35 g/ha: 35 g ai/ha; for pest or weed control at 70 g/ha: 70 g ai/ha; for pest or weed control at 140 g/ha: 140 g ai/ha
In short: (§1)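 Greenhouse plants at first or second true leaf stage sprayed with compound in acetone/DMSO-based spray solution with crop oil concentrate and Triton X-155 at 187 L/ha, tested at highest rate and ½× to 1/16× dilutions; solvent blank controls. Injury rated visually 0–100% versus untreated plants after 14 d.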

[2] = tested on: Key Grass and Sedge Weeds as well as Grass Crops; assay: Post-Emergent Test II: postemergent herbicidal activity, visual rating after 14 d (Table 8); format: in vivo; settings: post-emergence, 336 h; for pest or weed control at 35 g/ha: 35 g ai/ha; for pest or weed control at 70 g/ha: 70 g ai/ha; for pest or weed control at 140 g/ha: 140 g ai/ha
In short: as §1

[3] = lambsquarters (Chenopodium album), read-out: Visual Growth Reduction (%) 14 Days After Application CHEAL
[4] = oilseed rape, canola (Brassica napus), read-out: Visual Growth Reduction (%) 14 Days After Application BRSNN
[5] = redroot pigweed (Amaranthus retroflexus), read-out: Visual Growth Reduction (%) 14 Days After Application AMARE
[6] = sunflower (Helianthus annuus), read-out: Visual Growth Reduction (%) 14 Days After Application HELAN
[7] = velvetleaf (Abutilon theophrasti), read-out: Visual Growth Reduction (%) 14 Days After Application ABUTH
[8] = wild poinsettia (Euphorbia heterophylla), read-out: Visual Growth Reduction (%) 14 Days After Application EPHHL
[9] = barnyardgrass (Echinochloa crus-galli), read-out: Visual Growth Reduction (%) 14 Days After Application ECHCG
[10] = giant foxtail (Setaria faberi), read-out: Visual Growth Reduction (%) 14 Days After Application SETFA
[11] = maize, corn (Zea mays), read-out: Visual Growth Reduction (%) 14 Days After Application ZEAMX
[12] = rice (Oryza sativa), read-out: Visual Growth Reduction (%) 14 Days After Application ORYSA
[13] = wheat, spring (Triticum aestivum), read-out: Visual Growth Reduction (%) 14 Days After Application TRZAS
[14] = yellow nutsedge (Cyperus esculentus), read-out: Visual Growth Reduction (%) 14 Days After Application CYPES

| SMILES | pest or weed control at 35 g/ha [1, 3] [%] | pest or weed control at 70 g/ha [1, 3] [%] | pest or weed control at 140 g/ha [1, 3] [%] | pest or weed control at 35 g/ha [1, 4] [%] | pest or weed control at 70 g/ha [1, 4] [%] | pest or weed control at 140 g/ha [1, 4] [%] | pest or weed control at 35 g/ha [1, 5] [%] | pest or weed control at 70 g/ha [1, 5] [%] | pest or weed control at 140 g/ha [1, 5] [%] | pest or weed control at 35 g/ha [1, 6] [%] | pest or weed control at 70 g/ha [1, 6] [%] | pest or weed control at 140 g/ha [1, 6] [%] | pest or weed control at 35 g/ha [1, 7] [%] | pest or weed control at 70 g/ha [1, 7] [%] | pest or weed control at 140 g/ha [1, 7] [%] | pest or weed control at 35 g/ha [1, 8] [%] | pest or weed control at 70 g/ha [1, 8] [%] | pest or weed control at 140 g/ha [1, 8] [%] | pest or weed control at 35 g/ha [2, 9] [%] | pest or weed control at 70 g/ha [2, 9] [%] | other results |
| --- | --- | --- | --- | --- | --- | --- | --- | --- | --- | --- | --- | --- | --- | --- | --- | --- | --- | --- | --- | --- | --- |
| COC(=O)c1nc(-c2ccc3c(c2F)OC(F)(F)O3)c(F)c(N)c1Cl [Compound 10] | 85 to 94 | 85 to 94 | 95 to 100 | 75 to 84 | 85 to 94 | 85 to 94 | 85 to 94 | 95 to 100 | 95 to 100 | 85 to 94 | 85 to 94 | 85 to 94 | 85 to 94 | 95 to 100 | 95 to 100 | 95 to 100 | 95 to 100 | 95 to 100 | 95 to 100 | 95 to 100 | pest or weed control at 140 g/ha [2, 9]: 95 to 100%; pest or weed control at 35 g/ha [2, 10]: 75 to 84%; pest or weed control at 70 g/ha [2, 10]: 95 to 100%; pest or weed control at 140 g/ha [2, 10]: 95 to 100%; pest or weed control at 35 g/ha [2, 11]: 60 to 74%; pest or weed control at 70 g/ha [2, 11]: 75 to 84%; pest or weed control at 140 g/ha [2, 11]: 75 to 84%; pest or weed control at 35 g/ha [2, 12]: 0 to 29%; pest or weed control at 70 g/ha [2, 12]: 0 to 29%; pest or weed control at 140 g/ha [2, 12]: 0 to 29%; pest or weed control at 35 g/ha [2, 13]: 45 to 59%; pest or weed control at 70 g/ha [2, 13]: 60 to 74%; pest or weed control at 140 g/ha [2, 13]: 60 to 74%; pest or weed control at 35 g/ha [2, 14]: 95 to 100%; pest or weed control at 70 g/ha [2, 14]: 95 to 100%; pest or weed control at 140 g/ha [2, 14]: 95 to 100% |
| COC(=O)c1nc(-c2cc3c(cc2OC)OC(F)(F)O3)cc(N)c1Cl [Compound 38] | 0 to 29 | 0 to 29 | 0 to 29 | 0 to 29 | 0 to 29 | 0 to 29 | 0 to 29 | 60 to 74 | 60 to 74 | 0 to 29 | 0 to 29 | 60 to 74 | 0 to 29 | 0 to 29 | 0 to 29 | 0 to 29 | 0 to 29 | 0 to 29 | 0 to 29 | 0 to 29 | pest or weed control at 140 g/ha [2, 9]: 0 to 29%; pest or weed control at 35 g/ha [2, 10]: 0 to 29%; pest or weed control at 70 g/ha [2, 10]: 0 to 29%; pest or weed control at 140 g/ha [2, 10]: 0 to 29%; pest or weed control at 35 g/ha [2, 11]: 0 to 29%; pest or weed control at 70 g/ha [2, 11]: 0 to 29%; pest or weed control at 140 g/ha [2, 11]: 0 to 29%; pest or weed control at 35 g/ha [2, 12]: 0 to 29%; pest or weed control at 70 g/ha [2, 12]: 0 to 29%; pest or weed control at 140 g/ha [2, 12]: 0 to 29%; pest or weed control at 35 g/ha [2, 13]: 0 to 29%; pest or weed control at 70 g/ha [2, 13]: 0 to 29%; pest or weed control at 140 g/ha [2, 13]: 0 to 29%; pest or weed control at 35 g/ha [2, 14]: 0 to 29%; pest or weed control at 70 g/ha [2, 14]: 0 to 29%; pest or weed control at 140 g/ha [2, 14]: 0 to 29% |
